± gives the standard deviation of the averaged measurements.
Experiments:
Experiment in all cases: level (log10 ratio to DMSO vehicle control); higher = higher biomarker level / cell amount than vehicle control
[1] = compound: OCCCC(F)(F)C(F)(F)C(F)(F)C(F)(F)C(F)(F)C(F)(F)C(F)(F)F [7:3 Fluorotelomer alcohol]; settings: 6700 nM; in DMSO
Description: (§1)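 BioMAP Diversity Plus panel of 12 human primary cell co-culture systems (3C, 4H, LPS, SAg, BT, BF4T, BE3C, CASM3C, HDF3CGF, KF3CT, MyoF, Mphg). Compounds were added 1 h before stimulation and left for 24 h (MyoF 48 h; BT 72 h for soluble read-outs or 6 d for IgG). Biomarkers were read by ELISA, cytotoxicity by SRB, PBMC viability and proliferation by Alamar Blue. Each well value was divided by the mean of 8 DMSO control wells on the same plate and log10 transformed; duplicate blinded samples were tested at 4 concentrations.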

Perfluorobutanoic acid = compound: O=C(O)C(F)(F)C(F)(F)C(F)(F)F [Perfluorobutanoic acid]; settings: in DMSO
Description: as §1

Pentafluoropropionamide = compound: NC(=O)C(F)(F)C(F)(F)F [Pentafluoropropionamide]; settings: in DMSO
Description: as §1

[2] = compound: FC(F)C(F)(F)COCC1CO1 [((2,2,3,3-Tetrafluoropropoxy)methyl)oxirane]; settings: in DMSO
Description: as §1

Perfluoropropanoic acid = compound: O=C(O)C(F)(F)C(F)(F)F [Perfluoropropanoic acid]; settings: in DMSO
Description: as §1

[3] = compound: O=C(O)C(F)(F)C(F)(F)C(F)(F)OC(F)(C(F)(F)F)C(F)(F)F [Perfluoro-4-isopropoxybutanoic acid]; settings: in DMSO
Description: as §1

Perfluoroheptanoic acid = compound: O=C(O)C(F)(F)C(F)(F)C(F)(F)C(F)(F)C(F)(F)C(F)(F)F [Perfluoroheptanoic acid]; settings: in DMSO
Description: as §1

Test System | level (log10) [1] | level (log10) (Perfluorobutanoic acid; 6700 nM) | level (log10) (Perfluorobutanoic acid; 20000 nM) | level (log10) (Perfluorobutanoic acid; 60000 nM) | level (log10) (Pentafluoropropionamide; 6700 nM) | level (log10) (Pentafluoropropionamide; 20000 nM) | level (log10) (Pentafluoropropionamide; 60000 nM) | level (log10) ([2]; 6700 nM) | level (log10) ([2]; 20000 nM) | level (log10) ([2]; 60000 nM) | level (log10) (Perfluoropropanoic acid; 6700 nM) | level (log10) (Perfluoropropanoic acid; 20000 nM) | level (log10) (Perfluoropropanoic acid; 60000 nM) | level (log10) ([3]; 6700 nM) | level (log10) ([3]; 20000 nM) | level (log10) ([3]; 60000 nM) | level (log10) (Perfluoroheptanoic acid; 6700 nM) | level (log10) (Perfluoroheptanoic acid; 20000 nM) | level (log10) (Perfluoroheptanoic acid; 60000 nM)
BE3C:EGFR | 0.0115 ± 0.015 | 0.002 ± 0.0042 | 0.005 ± 0.0099 | -0.0035 ± 0.0035 | -0.019 ± 0.016 | -0.0095 ± 0.015 | -0.0235 ± 0.04 | 0.002 ± 0.0071 | -0.021 ± 0.021 | -0.0145 ± 0.012 | -0.0175 ± 0.036 | 0.0065 ± 0.012 | 0.035 ± 0.035 | 0.012 ± 0.027 | 0.0075 ± 0.005 | 0.044 ± 0.042 | -0.0065 ± 0.0078 | 0.0045 ± 0.0021 | -0.0005 ± 0.033
BE3C:HLA-DR | 0.0045 ± 0.029 | -0.0085 ± 0.018 | 0.007 ± 0.0014 | -0.027 ± 0.013 | -0.0115 ± 0.0078 | 0.0045 ± 0.0064 | 0.0055 ± 0.026 | 0.001 ± 0.0099 | -0.0055 ± 0.0035 | -0.07 ± 0.14 | -0.026 ± 0.0085 | -0.012 ± 0.024 | 0.016 ± 0.016 | -0.0045 ± 0.025 | -0.0045 ± 0.016 | 0.0105 ± 0.011 | -0.009 ± 0.0014 | -0.004 ± 0.0014 | 0.002 ± 0.027
BE3C:IL-1alpha | -0.002 ± 0.014 | 0.007 ± 0.018 | 0.0155 ± 0.021 | 0.0225 ± 0.049 | 0.0095 ± 0.022 | 0.003 ± 0.014 | 0.0295 ± 0.0035 | 0.0015 ± 0.029 | -0.0015 ± 0.0078 | -0.008 ± 0.014 | -0.019 ± 0.016 | -0.021 ± 0.04 | -0.0115 ± 0.023 | 0.0065 ± 0.026 | 0.016 ± 0.02 | 0.0325 ± 0.00071 | -0.0185 ± 0.029 | -0.0065 ± 0.03 | 0.0115 ± 0.0064
BF4T:CCL2/MCP-1 | -0.0115 ± 0.019 | 0.004 ± 0.038 | 0.017 ± 0.0057 | 0.006 ± 0.0071 | -0.0075 ± 0.0035 | -0.0195 ± 0.00071 | 0.001 ± 0.025 | -0.0155 ± 0.019 | -0.0095 ± 0.013 | 0.011 ± 0.044 | -0.0125 ± 0.011 | -0.0095 ± 0.005 | 0.061 ± 0.083 | 0.0235 ± 0.046 | 0.0325 ± 0.084 | 0.045 ± 0.078 | 0.0155 ± 0.056 | 0.019 ± 0.067 | 0.0365 ± 0.12
